Assay results taken from patent publication US20170056345A1 (priority 2014, published 2017).

Assays:
M. tuberculosis = assay: time-kill curve method, bactericidal activity (CFU) on solid media at pH6; assay type: cell-based; settings: FIG. 2
Procedure: The synergistic effect of AHA in overcoming urea protection of M. tuberculosis and in enhancing the efficacy of PZA is illustrated.
We employed a time-kill curve method to determine the bactericidal activity of PZA and a combination of PZA and acetohydroxamic acid (AHA) against M. tuberculosis. We cultured M. tuberculosis on solid media at pH6. CFU values were determined for samples treated with pyrazinamide (PZA), urea at a typical body fluid concentration and acetohydroxamic acid. […] Consequently, our results provide that AHA acts not only as a PZA booster, but also as an anti-mycobacterial agent, in some instances, in a synergistic manner with the traditional anti-mycobacterial agent used.

mycobacterial urease = mycobacterial urease (Mycobacterium bovis, UniProt A1KJR2); assay: cell-based; design: species or system M. bovis BCG
mycobacterial urease, sequence (A1KJR2 whole entry, looked up): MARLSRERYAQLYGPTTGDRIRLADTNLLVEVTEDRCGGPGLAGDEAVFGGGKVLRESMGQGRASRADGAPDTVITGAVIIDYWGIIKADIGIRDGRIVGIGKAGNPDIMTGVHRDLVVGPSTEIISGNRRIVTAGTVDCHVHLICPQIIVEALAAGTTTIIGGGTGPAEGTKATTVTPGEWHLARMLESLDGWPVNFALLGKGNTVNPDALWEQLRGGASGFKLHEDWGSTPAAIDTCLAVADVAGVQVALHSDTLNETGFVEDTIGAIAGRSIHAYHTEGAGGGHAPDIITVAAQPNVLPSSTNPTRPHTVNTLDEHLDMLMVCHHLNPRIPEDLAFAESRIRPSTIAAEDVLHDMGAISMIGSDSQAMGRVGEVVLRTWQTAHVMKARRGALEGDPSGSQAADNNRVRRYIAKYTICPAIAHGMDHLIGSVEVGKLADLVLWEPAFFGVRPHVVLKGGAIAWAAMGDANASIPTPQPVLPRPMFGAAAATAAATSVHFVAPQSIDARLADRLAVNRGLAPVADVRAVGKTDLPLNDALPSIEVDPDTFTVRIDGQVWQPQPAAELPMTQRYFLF

Structure (SMILES): CC(=O)NO [acetohydroxamic acid]
- effect on kill rate (M. tuberculosis; AHA combined with PZA (urea present), solid media pH6): substantially increased the kill rate
- effect on urea protection against the PZA kill (M. tuberculosis; AHA with PZA and urea at a typical body fluid concentration, solid media pH6): prevented urea protection
- IC50 (mycobacterial urease): 100 to 200 µM

Structure (SMILES): NC(=O)c1cnccn1 [PZA, pyrazinamide]
- kill (bactericidal activity, CFU) (M. tuberculosis; PZA alone, M. tuberculosis on solid media at pH6): modest
